pIC50: −log10 of the molar value. Where two headings read alike, the source gives them in different places.
Key:
[1] = target: T1, His-GST-TVMV-hRIPK1(1-324) (Homo sapiens, UniProt Q13546); test: RIPK1 HTRF Binding Assay
T1 construct: The coding region of human RIPK1(1-324) flanked by NdeI site at 5′ end; made in house; host or cells: Spodoptera frugiperda (Sf9) insect cells, baculovirus
T1 sequence (Q13546 1-324): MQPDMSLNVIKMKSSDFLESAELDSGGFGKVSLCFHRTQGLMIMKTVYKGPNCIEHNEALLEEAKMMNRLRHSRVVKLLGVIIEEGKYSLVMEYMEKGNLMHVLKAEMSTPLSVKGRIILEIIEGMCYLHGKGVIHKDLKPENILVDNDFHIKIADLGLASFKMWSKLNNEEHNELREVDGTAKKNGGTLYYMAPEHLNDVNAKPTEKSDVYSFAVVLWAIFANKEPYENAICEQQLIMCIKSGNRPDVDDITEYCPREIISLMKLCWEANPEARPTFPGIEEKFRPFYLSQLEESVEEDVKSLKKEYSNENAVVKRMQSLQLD

[2] = tested on: MLKL phosphorylation in HT29-L23 human colorectal adenocarcinoma cells; test: MLKL Phosphorylation High-Content Assay; type: cell-based; conditions: Homo sapiens
How it was run: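 IC50 and Ymax obtained by 4-parameter logistic fitting of MLKL phosphorylation, measured as mean circ-ring average intensity ratio from high-content images. Staining used an anti-phospho-S358 MLKL antibody overnight at 4° C., following six-hour cell incubation at 37° C.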

[3] = x marks IC50 class 20-200 nM, read-out: RIPK1 HTRF binding 20-200 nM
[4] = x marks IC50 class 20-200 nM, read-out: pMLKL cell activity 20-200 nM
[5] = x marks IC50 class >200 nM, read-out: pMLKL cell activity >200 nM
[6] = x marks IC50 class <20 nM, read-out: RIPK1 HTRF binding <20 nM
[7] = x marks IC50 class <20 nM, read-out: pMLKL cell activity <20 nM

| Structure (SMILES) | pIC50 [1, 3] | pIC50 [2, 4] | pIC50 [2, 5] | pIC50 [1, 6] | also measured |
| --- | --- | --- | --- | --- | --- |
| Cc1nc(C)c(-c2ccn3nc(N)nc3c2)cc1C(=O)NCc1cc(F)cc(F)c1OC1CC(C)OC(C)C1 (stereo not shown) [Example 297, 5-(2-amino-[1,2,4]triazolo[1,5-a]pyridin-7-yl)-N-(2-((2,6-dimethyltetrahydro-2H-pyran-4-yl)oxy)-3,5-difluorobenzyl)-2,6-dimethylnicotinamide] | 6.70 to 7.70 | 6.70 to 7.70 |  |  |  |
| Cc1ncc(-c2ccn3nc(N)nc3c2)cc1C(=O)NCc1cccc(OCC(F)(F)F)c1 [Example 313, 5-(2-amino-[1,2,4]triazolo[1,5-a]pyridin-7-yl)-2-methyl-N-(3-(2,2,2-trifluoroethoxy)benzyl)nicotinamide] | 6.70 to 7.70 |  | < 6.70 |  |  |
| Nc1nc2cc(-c3cncc(C(=O)NCc4ccccc4OC4CCCC4)c3)ccn2n1 [Example 43, 5-{2-Amino-[1,2,4]triazolo[1,5-a]pyridin-7-yl}-N-{[2-(cyclopentyloxy)phenyl]methyl}pyridine-3-carboxamide] |  | 6.70 to 7.70 |  | > 7.70 |  |
| [2H]C([2H])([2H])Oc1nc(C)c(-c2ccn3nc(N)nc3c2)cc1C(=O)NCc1cc(F)cc(F)c1OC([2H])([2H])C1CC1 [Example 282, 5-(2-Amino-[1,2,4]triazolo[1,5-a]pyridin-7-yl)-N-(2-(cyclopropylmethoxy-d2)-3,5-difluorobenzyl)-2-(methoxy-d3)-6-methylnicotinamide] |  |  |  | > 7.70 | pIC50 [2, 7]: > 7.70 |
| COc1ncc(C(=O)NCc2ccccc2OCC2CC2)cc1-c1ccn2nc(N)nc2c1 [Example 28, 5-{2-Amino-[1,2,4]triazolo[1,5-a]pyridin-7-yl}-N-{[2-(cyclopropylmethoxy)phenyl]methyl}-6-methoxypyridine-3-carboxamide] |  | 6.70 to 7.70 |  | > 7.70 |  |
| Cc1nc(C)c(-c2ccn3nc(N)nc3c2)cc1C(=O)NCc1cc(OC(F)(F)F)ccc1F [Example 181, 5-{2-amino-[1,2,4]triazolo[1,5-a]pyridin-7-yl}-N-{[2-fluoro-5-(trifluoromethoxy)phenyl]methyl}-2,6-dimethylpyridine-3-carboxamide] |  |  |  | > 7.70 | pIC50 [2, 7]: > 7.70 |
| COc1ncc(-c2ccn3nc(N)nc3c2)cc1NC(=O)Cc1cccc(C(F)(F)F)c1 [Example 416, N-(5-(2-amino-[1,2,4]triazolo[1,5-a]pyridin-7-yl)-2-methoxypyridin-3-yl)-2-(3-(trifluoromethyl)phenyl)acetamide] | 6.70 to 7.70 |  | < 6.70 |  |  |
| CCOc1ncc(-c2ccn3nc(N)nc3c2)cc1C(=O)Nc1cnn(Cc2ccccc2)c1 [Example 279, 5-{2-amino-[1,2,4]triazolo[1,5-a]pyridin-7-yl}-N-(1-benzyl-1H-pyrazol-4-yl)-2-ethoxypyridine-3-carboxamide] | 6.70 to 7.70 | 6.70 to 7.70 |  |  |  |
| Cc1ncc(C(=O)NCc2cc(OC(F)(F)F)ccc2F)cc1-c1ccn2nc(N)nc2c1 [Example 256, 5-{2-amino-[1,2,4]triazolo[1,5-a]pyridin-7-yl}-N-{[2-fluoro-5-(trifluoromethoxy)phenyl]methyl}-6-methylpyridine-3-carboxamide] | 6.70 to 7.70 |  | < 6.70 |  |  |
| Cc1ncc(-c2ccn3nc(N)nc3c2)cc1C(=O)NCc1c(F)cccc1OCC1CCCC1 [Example 15, 5-{2-Amino-[1,2,4]triazolo[1,5-a]pyridin-7-yl}-N-{[2-(cyclopentylmethoxy)-6-fluorophenyl]methyl}-2-methylpyridine-3-carboxamide] |  |  |  | > 7.70 | pIC50 [2, 7]: > 7.70 |
| COc1ncc(-c2ccn3nc(N)nc3c2)cc1C(=O)N(C)Cc1cccc(OC(F)(F)F)c1 [Example 162, 5-{2-amino-[1,2,4]triazolo[1,5-a]pyridin-7-yl}-2-methoxy-N-methyl-N-{[3-(trifluoromethoxy)phenyl]methyl}pyridine-3-carboxamide] |  | 6.70 to 7.70 |  | > 7.70 |  |
| COc1ncc(-c2ccn3nc(N)nc3c2)cc1C(=O)NCc1cc(F)cc(F)c1OCC1CCCC1 [Example 128, 5-{2-amino-[1,2,4]triazolo[1,5-a]pyridin-7-yl}-N-{[2-(cyclopentylmethoxy)-3,5-difluorophenyl]methyl}-2-methoxypyridine-3-carboxamide] |  |  |  | > 7.70 | pIC50 [2, 7]: > 7.70 |
| [2H]C([2H])([2H])Oc1ncc(-c2ccn3nc(N)nc3c2)cc1C(=O)NC([2H])([2H])c1cc(C(F)(F)F)ccc1F [Example 284, 5-(2-amino-[1,2,4]triazolo[1,5-a]pyridin-7-yl)-N-((2-fluoro-5-(trifluoromethyl)phenyl)methyl-d2)-2-(methoxy-d3)nicotinamide] |  | 6.70 to 7.70 |  | > 7.70 |  |
| Nc1nc2cc(-c3cc(C(=O)NCc4cc(F)ccc4OC(F)(F)F)cnc3Cl)ccn2n1 [Example 369, 5-(2-amino-[1,2,4]triazolo[1,5-a]pyridin-7-yl)-6-chloro-N-(5-fluoro-2-(trifluoromethoxy)benzyl)nicotinamide] |  | 6.70 to 7.70 |  | > 7.70 |  |
| Cc1ncc(-c2ccn3nc(N)nc3c2)cc1C(=O)NCc1ccc(F)cc1OCC1CC1 [Example 24, 5-{2-Amino-[1,2,4]triazolo[1,5-a]pyridin-7-yl}-N-{[2-(cyclopropylmethoxy)-4-fluorophenyl]methyl}-2-methylpyridine-3-carboxamide] | 6.70 to 7.70 |  | < 6.70 |  |  |
| Cc1nc(C)c(-c2ccn3nc(N)nc3c2)cc1C(=O)NCc1cc(F)cc(F)c1OC1CCOC(C)C1 (stereo not shown) [Example 296, 5-(2-amino-[1,2,4]triazolo[1,5-a]pyridin-7-yl)-N-(3,5-difluoro-2-((2-methyltetrahydro-2H-pyran-4-yl)oxy)benzyl)-2,6-dimethylnicotinamide] | 6.70 to 7.70 | 6.70 to 7.70 |  |  |  |
| COc1ncc(-c2ccn3nc(N)nc3c2)cc1C(=O)NCc1ncccc1OCC1CCCC1 [Example 124, 5-{2-amino-[1,2,4]triazolo[1,5-a]pyridin-7-yl}-N-{[3-(cyclopentylmethoxy)pyridin-2-yl]methyl}-2-methoxypyridine-3-carboxamide] |  | 6.70 to 7.70 |  | > 7.70 |  |
| COc1ncc(C(=O)NCc2c(F)cccc2OCC2CCC2)cc1-c1ccn2nc(N)nc2c1 [Example 25, 5-{2-Amino-[1,2,4]triazolo[1,5-a]pyridin-7-yl}-N-{[2-(cyclobutylmethoxy)-6-fluorophenyl]methyl}-6-methoxypyridine-3-carboxamide] |  | 6.70 to 7.70 |  | > 7.70 |  |
| COc1ncc(-c2ccn3nc(N)nc3c2)cc1C(=O)NCc1c(F)cccc1OCC1CCCC1 [Example 126, 5-{2-amino-[1,2,4]triazolo[1,5-a]pyridin-7-yl}-N-{[2-(cyclopentylmethoxy)-6-fluorophenyl]methyl}-2-methoxypyridine-3-carboxamide] |  | 6.70 to 7.70 |  | > 7.70 |  |
| COc1ncc(-c2ccn3nc(N)nc3c2)cc1C(=O)NCc1ccccc1OCC1CCC(C)CC1 (stereo not shown) [Example 10, 5-{2-Amino-[1,2,4]triazolo[1,5-a]pyridin-7-yl}-2-methoxy-N-({2-[(4-methylcyclohexyl)methoxy]phenyl}methyl)pyridine-3-carboxamide] | 6.70 to 7.70 |  | < 6.70 |  |  |
| COc1ncc(-c2ccn3nc(N)nc3c2)cc1C(=O)NCc1ccccc1OC(C)C1CCCC1 (stereo not shown) [Example 125, 5-{2-amino-[1,2,4]triazolo[1,5-a]pyridin-7-yl}-N-{[2-(1-cyclopentylethoxy)phenyl]methyl}-2-methoxypyridine-3-carboxamide] |  | 6.70 to 7.70 |  | > 7.70 |  |
| Cc1nc(C)c(-c2ccn3nc(N)nc3c2)cc1C(=O)NCCC(C)c1ccccc1 (stereo not shown) [Example 174, 5-{2-amino-[1,2,4]triazolo[1,5-a]pyridin-7-yl}-2,6-dimethyl-N-(3-phenylbutyl)pyridine-3-carboxamide] | 6.70 to 7.70 |  | < 6.70 |  |  |
| [2H]C([2H])([2H])[C@H](NC(=O)c1cc(-c2ccn3nc(N)nc3c2)cnc1C)c1cccc(OC(F)(F)F)c1 [Example 310, (S)-5-(2-amino-[1,2,4]triazolo[1,5-a]pyridin-7-yl)-2-methyl-N-(1-(3-(trifluoromethoxy)phenyl)ethyl-2,2,2-H3)nicotinamide] | 6.70 to 7.70 |  | < 6.70 |  |  |
| [2H]C([2H])([2H])Oc1ncc(-c2ccn3nc(N)nc3c2)cc1C(=O)NC([2H])([2H])c1cc(OC(F)(F)F)ccc1F [Example 93, 5-{2-amino-[1,2,4]triazolo[1,5-a]pyridin-7-yl}-N-{[2-fluoro-5-(trifluoromethoxy)phenyl] (deutero)methyl}-2-(deutero)methoxypyridine-3-carboxamide] |  | 6.70 to 7.70 |  | > 7.70 |  |
| COc1ccccc1CNC(=O)c1cc(-c2ccn3nc(N)nc3c2)cnc1OC [Example 154, 5-{2-amino-[1,2,4]triazolo[1,5-a]pyridin-7-yl}-2-methoxy-N-[(2-methoxyphenyl)methyl]pyridine-3-carboxamide] |  |  | < 6.70 |  | pIC50 ([1]; x marks IC50 class >200 nM, read-out: RIPK1 HTRF binding >200 nM): < 6.70 |
| Nc1nc2cc(-c3cnc(N)c(C(=O)NCc4c(F)cccc4OCC4CC4)c3)ccn2n1 [Example 53, 2-Amino-5-{2-amino-[1,2,4]triazolo[1,5-a]pyridin-7-yl}-N-{[2-(cyclopropylmethoxy)-6-fluorophenyl]methyl}pyridine-3-carboxamide] |  | 6.70 to 7.70 |  | > 7.70 |  |

— patent publication US10913738B2 (BRISTOL-MYERS SQUIBB COMPANY, priority 2017, dated 2021)
